US10111900B2, “β-glucan methods and compositions that affect the tumor microenvironment” (Biothera, Inc., priority 2014, dated 2018)

Columns and labels:
Format in all cases: cell-based, human
M1 macrophages = assay: Flow cytometry of M1/M2 markers on M1 macrophages derived from β-glucan-treated whole blood
Experimental: CD14^+ monocytes from human whole blood were enriched using Ficoll gradient and magnetic bead separation. […] T cell proliferation was measured at the end of the experiment (day 9-day 11) by flow cytometry, and results are graphically shown as CFSE-dilution peaks. […] Quantitative results were reported as the Division Index (the average number of cell divisions a population underwent) calculated for each of the triplicate wells in each of the culture conditions. […]
(§1) Expression of a panel of markers was evaluated by flow cytometry for vehicle- and β-glucan-treated, high binder-derived M1 and M2 macrophages (CD163 was evaluated twice).
(§2) CD163 and CD86 were evaluated by flow cytometry for vehicle- and β-glucan-treated, low binder-derived M1 and M2 macrophages.

M2 macrophages [1] = assay: Flow cytometry of M1/M2 markers on M2 macrophages derived from β-glucan-treated whole blood; conditions: for expression of CD163: M2 macrophages, vs vehicle
Experimental: CD14^+ monocytes from human whole blood were enriched using Ficoll gradient and magnetic bead separation. Enriched monocytes (5×10^5 cells per mL) were then cultured in either M1-polarizing (XVivo 10 media (Lonza Group) supplemented with 5% autologous serum and 100 ng/mL recombinant human granulocyte macrophage colony-stimulating factor (rhGM-CSF) (R&D Systems) or M2-polarizing (XVivo 10 media supplemented with 10% autologous serum and 50 ng/mL recombinant human macrophage colony-stimulating factor (rhM-CSF) (R&D Systems) conditions for 6 days. In experiments performed to evaluate the effect of β-glucan, whole blood was first incubated with vehicle (sodium citrate buffer) or 25 μg/mL soluble β-glucan for 2 hours at 37° C. and then the monocytes were isolated and differentiated. Morphology was checked before macrophages were harvested for phenotypic analysis. Culture medium of the day 6 macrophage culture (MCM) was collected, spun down to remove contaminated cell pellet and then frozen down for subsequent cytokine analysis by ELISA or used to setup a co-culture with CD3 & CD28-stimulated CD4 T cells (MCM-CD4 T) for evaluation of either surface markers or CD4 T cell proliferation. The macrophages were used to setup a co-culture with CD3 & CD28- or CD3 only-stimulated CD4 T cells (Mac-CD4 T) on day 6 for evaluation of either surface marker modulation or effect on CD4 T cell proliferation. For Mac-CD4 T cell proliferation study, M1 or M2 macrophages were cultured with CD3 & CD28- or CD3 only-stimulated, CFSE-labeled, autologous CD4 T cells at a 1:10 ratio. T cell proliferation was measured at the end of the experiment (day 9-day 11) by flow cytometry, and results are graphically shown as CFSE-dilution peaks. The assessment of CD3-only stimulated T cells was always done on day 11. Quantitative results were reported as the Division Index (the average number of cell divisions a population underwent) calculated for each of the triplicate wells in each of the culture conditions. Culture supernatants of Mac-CD4 T cell co-cultures were collected for subsequent cytokine analysis.
M1 and M2 macrophages from vehicle- or […] whole blood were prepared as described above. […] In addition, surface expression of CD86 was enhanced as well as both protein and mRNA levels of PD-L1 (FIG. 2B).
as §1, §2

[2] = system: M2 macrophages cultured in TCM; assay: Flow cytometry of markers on M2 macrophages cultured in tumor-conditioned medium (TCM)
Experimental: Phenotypic and functional evaluation of β-glucan-treated M2a and β-glucan-treated M2 macrophages in the presence of immunosuppressive cytokines was carried out. M2 or M2a macrophages were prepared as described above. On day 3, tumor-conditioned medium (TCM) was added M2 macrophage cultures to account for 70% of the volume of the culture and then evaluated for CD163 expression and functional activity on day 6. […] M2a macrophages were cultured in IL-4 as described above.
The β-glucan-treated M2a macrophages cultured in IL-4 and M2 macrophages cultured in TCM were first evaluated for CD163 and CD86 expression. CD163 and CD86 were evaluated by flow cytometry and median MFI was calculated for isotype control staining and surface antigen staining and the results are shown in Table 5.
Monocytes or M2 macrophages were prepared as described above. On day 3, TCM was added to account for 70% of the volume of the culture and then evaluated for PD-L1 expression with TCM and then again when co-cultured with CD4 T cells.

M2 macrophages [3] = assay: Mac-CD4 T co-culture, surface marker modulation on macrophages; conditions: relative to vehicle-treated M2 macrophages
Experimental: For evaluation of Mac-CD4 T cell surface marker modulation, M2 macrophages were co-cultured with T cells as described above and cells were harvested on day 8, day 9 and day 10 to perform surface receptor staining on both M2 macrophages and T cells.
Changes in surface marker expression on both macrophages and CD3 & CD28-stimulated T cells were also measured. Vehicle- and β-glucan-treated M2 macrophages and CD T cells from the co-cultures were evaluated by flow cytometry for the modulation of co-stimulatory or co-inhibitory molecules. FIG. 8C and Table 9 are representative results from 2 different experiments.

CD4 and CD8 T cells = assay: T cell proliferation and activation of PBMCs in plasma from β-glucan-treated whole blood
Experimental: To obtain plasma, whole blood was treated for 6 hours with 25 μg/mL β-glucan or vehicle, spun down and the plasma removed. 50,000 autologous CFSE-labeled PBMCs were cultured in the treated plasma for 3 days in the presence of 50,000 T cell activating CD3/28 beads (DYNABEADS Human T-Activator CD3/CD28 for T Cell Expansion and Activation). At the end of the culture, PBMCs were stained with CD4 and CD8 and T cell proliferation was measured by CFSE dilution.
Next, to show the effect of soluble β-glucan on CD4 and CD8 cell activation, the T cell proliferation assay described above was again carried out. At day 3, however, the cells were stained for markers of activation including Granzyme B production and CD25 upregulation.

Tregs = assay: Treg suppression assay
Experimental: Since these PBMC cultures contain Tregs, the suppressive ability of Tregs seem to be altered in the presence of soluble β-glucan and studies were carried out to determine if β-glucan affected Treg suppression. Plasma from β-glucan-treated or vehicle-treated whole blood (described above) was added to 25,000 isolated CFSE-labeled autologous CD4 T cells (CD4^+CD25^−) along with increasing numbers of isolated autologous Tregs (CD4^+CD25^+) resulting in wells with increasing ratios. Cells were then stimulated with 50,000 T cell activating CD3/28 beads for 3 days. Proliferation was subsequently measured by CFSE dilution and quantified by Division Index, which was used to calculate the % suppression of Tregs in the co-culture. % suppression=100-(Division Index of Treg well/Division Index of 1:0 well)[…].
The Treg suppression assay was conducted as described above, and after 3 days of co-culture, supernatants were analyzed for IFN-gamma production.

[4] = β-glucan-treated M2 macrophages vs vehicle

How did the “CD163 (2) median MFI” value (M1 macrophages; M1 macrophages, high binder) turn out when “β(1,6)-[poly-(1,3)-D-glucopyranosyl]-poly-β(1,3)-D-glucopyranose [β-glucan]” was run?
Its value is 230.

What about the “M1 macrophage phenotype (M1/M2-specific markers)” value (M1 macrophages; β-glucan pretreatment vs vehicle) of the same substance?
The value was “did not affect”.

And the “expression of CD163” value (M2 macrophages [1]; high binders)?
Its value is “lower expression”.

What about the “expression of CD163” value (M2 macrophages [1]; low binders) of the same substance?
The value was “remained the same”.

And the “mean fluorescence intensity (MFI) of CD163” value (M2 macrophages [1]; [4])?
Its value is “downmodulated”.

What about the “protein and mRNA levels of PD-L1” value (M2 macrophages [1]; [4]) of the same substance?
Its value is “enhanced”.

What about the “surface expression of CD86” value (M2 macrophages [1]; [4]) of the same substance?
Its value is “enhanced”.

What about the “surface expression of PD-L1” value ([2]; M2 macrophages cultured in the TCM) of the same substance?
The value was “higher surface expression”.

And the HLA-DR expression ([2]; M2 macrophages in TCM (data not shown))?
The HLA-DR expression was “higher HLA-DR expression”.

What about the “expression of PD-L1” value ([2]; M2 macrophages in TCM co-cultured with CD4 T cells) of the same substance?
The value was “increased expression”.

What about the CD163 expression ([2]; β-glucan-treated monocytes cultured in TCM) of the same substance?
The CD163 expression was “marked down-regulation”.

And the “Change in MFI on Macrophages: 4-1BBL” value (M2 macrophages [3])?
Its value is “No change”.

And the “Change in MFI on Macrophages: CD40” value (M2 macrophages [3])?
The value was “No change”.

And the “Change in MFI on Macrophages: CD80” value (M2 macrophages [3])?
The value was “No change”.

What about the “Change in MFI on Macrophages: CD172” value (M2 macrophages [3]) of the same substance?
The value was “No change”.

And the “Change in MFI on Macrophages: CD209” value (M2 macrophages [3])?
Its value is “No change”.

And the “Change in MFI on Macrophages: OX40” value (M2 macrophages [3])?
The value was “No change”.

And the “Change in MFI on Macrophages: HLA-DR” value (M2 macrophages [3]; co-culture with CD3 & CD28-stimulated T cells)?
Its value is “No change”.

And the “Change in MFI on Macrophages: CD86” value (M2 macrophages [3]; day 8)?
Its value is “relative increase”.

What about the “Change in MFI on Macrophages: PD-L1 (CD274)” value (M2 macrophages [3]; day 9) of the same substance?
Its value is “relative increase”.

What about the “CD4 and CD8 proliferation” value (CD4 and CD8 T cells; plasma from whole blood treated 6 hours with 25 μg/mL β-glucan, vs vehicle, CD3/28 beads, 3 days) of the same substance?
Its value is “significant enhancement”.

And the “CD4 and CD8 cell activation (Granzyme B production, CD25 upregulation)” value (CD4 and CD8 T cells; β-glucan-treated plasma, day 3)?
Its value is “enhances”.

What about the IFN-gamma production (Tregs; Treg suppression assay, 3 days, 8:1 T cell to Treg ratio) of the same substance?
Its IFN-gamma production is “enhanced IFN-gamma production”.

And the “suppressive capacity of Tregs” value (Tregs; plasma from β-glucan-treated vs vehicle-treated whole blood)?
Its value is “significant decreases”.
